Laboratory results published in patent publication US10905750B2, “GRP78 antagonist that block binding of receptor tyrosine kinase orphan receptors as immunotherapy anticancer agents” (CREATIVE BIOTHERAPEUTICS, LLC, priority 2017, dated 2021).
Entries after “also recorded” stand apart in the source; their conditions may differ. Blank lines part the entries; values can stand above or below the molecule they belong to.

Columns and labels:
[1] = system: BT549 human breast cancer cells; assay: WST-8 proliferation assay, BT549 (5 day); type: cell-based; conditions: BT-549, 120 h, GRP78 10 ug/ml, 5 days, read-out: Proliferation Inhibition (5 day) IC50, Breast Cancer BT549
Procedure: The inhibition effect of GRP78 antagonist on metastatic triple-negative, chemo-resistant BT549 cells was assessed using a proliferation assay.

[2] = system: mouse breast cancer cells, 4T1; assay: WST-8 proliferation assay, 4T1 (5 day); type: cell-based; conditions: 120 h, GRP78 10 ug/ml, 5 days, read-out: Proliferation Inhibition (5 day) IC50, Mouse Breast Cancer 4T1
[3] = system: chemo-resistant colon cancer cells (DLD-1); assay: WST-8 proliferation assay, DLD-1 (5 day); type: cell-based; conditions: Homo sapiens, DLD-1, 120 h; GRP78 10 ug/ml, 5 days; read-out: Proliferation Inhibition (5 day) IC50, Colon Cancer DLD-1
[4] = system: GRP78 treated dendritic cells; assay: Tolerogenic phenotype of GRP78 treated dendritic cells (flow cytometry, IL-10 ELISA); type: cell-based, human; conditions: for maturity marker CD86 on DCs exposed to GRP78/LPS: FIG. 13; for activity for reversing the tolerogenic phenotype of dendritic cells induced by GRP78: dose dependent, in words; for potency in blocking B7H3 on DCs exposed to GRP78, relative to K5: flow cytometry, FIG. 9A
Procedure: Consequently surface GRP78 binding on tumor cells leads to chemo-resistance and proliferation. […] Immature dendritic cells were differentiated from isolated CD14^+ myeloid cells with the addition of GM-CSF and IL-4 for 7 days. GRP78 (10 μg/ml) was added to the cells to produce a tolerogenic phenotype showing up regulation of PD-L1, B7H4, B7H3, IL-10 and down regulation of CD86. Therefore our GRP78 antagonists can potently block the activity of GRP78 on dendritic cells.
FIG. 9A-9C illustrates increasing amounts of the GRP78 antagonists result in blocking GRP78 which reduces checkpoint protein expression on DCs. A tolerogenic dendritic cell phenotype is induced by soluble GRP78 binding. Myeloid CD14+ cells were co-stimulated for 7 days with IL-4, and GMCSF. On day 5 LPS along with or without GRP78 and GRP78 antagonists were added. On day 8, dendritic cells were fixed and stained for flow cytometry. The percent of B7H3, PD-L1, CD86 was measured by flowcytometry and compared to GRP78 untreated dendritic cells.
To determine if GRP78 antagonists can block the tolerogenic phenotype of GRP78 treated dendritic cells, we differentiated immature dendritic cells. From 20 million human pooled PBMCs (AllCells), we isolated about 2.5 million CD14+ monocytes using positive selection with a pluribead CD14 kit (Pluriselect). […] From our multiple studies, we can isolate about 2.5 million CD14+ monocytes from 20 million PBMCs using positive selection with pluribeads (Pluriselect). […] On day 8, cells were fixed and aliquots stained at 4 C for various tolerogenic DC markers: PD-I([…]), B7H4, […], CD86, CD14, ROR1. Stained cells were analyzed byflow cytometry analysis. All antibodies for the DC markers were PE labeled from BD PharMingen. The cytokine, IL-10 (ENZO Life Sciences), was assayed by ELISA (Sigma). Negative controls wells were with GRP78 and positive controls are without GRP78 but with LPS. […] All of these antagonists decreased expression of PD-L1, B7H4, B7H3, and IL-10 from mature dendritic cells and increased expression of the maturity marker CD86 on dendritic cells (FIGS. 9A-9C).

[5] = system: panel of tumor cells; assay: Tumor cell proliferation assay 72 hours, whole panel; type: cell-based; conditions: in words
Procedure: (§1) For the proliferation assay, cells were plated in 96 well plates at approximately 3000 cells per well overnight. The media was removed and fresh media with 1% FBS containing 10 μg/ml GRP78 was added along with the GRP78 antagonists. The plates were incubated for 72 hours at 37 C in 8% CO2. After 72 hours, cell number was determined with a WST-8 cell proliferation kit (Sigma). […] The only tumor cell line tested to not be inhibited by GRP78 antagonists was HT29, a colon carcinoma cell line. From our previous data above, we know U87 and D54 have ROR1 expressed on their cell surfaces.

[6] = system: 293 Kidney fibroblasts; assay: Proliferation assay 72 hours, 293 kidney normal cells; type: cell-based, human
Procedure: as §1

[7] = biological target: T1, GRP78 (Homo sapiens, UniProt P11021); assay: GRP78 ELISA, direct binding of biotin-labelled kringles; conditions: FIG. 19A
T1 construct: purchased StressMarq
From the text: Recombinant K5-fragment biotin and Kr1 fragment-biotin were used for binding. Neutra-avidin-HRP was used to detect binding after washing with PBS.
To determine if ROR1 is expressed on immature dendritic cells, CD14^+ cells were isolated from human PBMCs and cultured in GM-CSF, and IL-4 for 7 days to produce immature DCs. […] This flow cytometry analysis supports the hypothesis that immature dendritic cells express ROR1 in which the ROR1 kringle domain binds to GRP78.
Comparison of GRP78 binding for the two kringle domains was performed by a GRP78 ELISA. GRP78 (StressMarq) (1 ug/ml@ 100 μl/well) was bound to a tissue culture coated 96 well plate overnight at 4° C. After washing 3× with PBS, the plates were blocked with superblock (Pierce) for 1 hour at room temperature. […] The plate was then washed 3× with PBS again and Neutra-avidin-HRP was added to the wells for 1 hour at room temperature. The wells were washed again with PBS and one step TMB (Pierce) was added to the wells with absorbance recorded after 30 minutes to measure kringle binding. […] To analyze these peptides for binding to GRP78, we used a 96 well competition binding assay. The assay consisted of binding GRP78 to a tissue coated 96 well plate as listed above. […] After the plate was washed, Neutra-avidin-HRP was added and bound K5 was measured by adding HRP substrate, TMB, as listed above.

[8] = system: Calu 6 lung carcinoma cells; assay: Tumor cell proliferation assay 72 hours, Calu 6; type: cell-based
Procedure: as §1

[9] = system: D54 glioma cells; assay: Tumor cell proliferation assay 72 hours, D54; type: cell-based
Procedure: as §1

[10] = system: MDA231 breast carcinoma cells; assay: Tumor cell proliferation assay 72 hours, MDA231; type: cell-based
Procedure: as §1

[11] = system: HT29 colon carcinoma cells; assay: Tumor cell proliferation assay 72 hours, HT29; type: cell-based
Procedure: as §1

[12] = system: U87 glioma cells; assay: Tumor cell proliferation assay 72 hours, U87; type: cell-based
Procedure: as §1

[13] = biological target: T2, ROR1 binding to GRP78 (Homo sapiens, UniProt P11021); assay: Immunoprecipitation of ROR1 using GRP78-Biotin from D54 glioma cell lysate; conditions: D54 glioma cell-surface lysate, 100 nM, FIG. 5
T2 construct: purchased StressMarq; host or cells: ROR1 is endogenous, from D54 glioma cell lysate
From the text: The use of GRP78/ROR1 antagonists to break immune tolerance for the treatment of resistant cancers represents a major shift in cancer therapies. Few, if any, current anti-cancer therapies have anti-angiogenic, anti-tumor and immune modulatory activities similar to modified ROR1, ROR2, and K5 kringle domains. To understand what pathways could be responsible for these activities in tumor and dendritic cells, we used GRP78 binding and crosslinking pull down studies against the cell surface proteome of D54 glioma cells and dendritic cells. We have identified that ROR1 and ROR2 as a cell GRP78 surface receptor.
Since the mechanism of action is inconclusive for soluble, surface bound GRP78, we decided to identify the surface receptor for GRP78 on glioma (D54) cells. Using GRP78 (StressMarq) labeled with Biotin (Sigma, Mix-n-Match), pull down experiments were performed. 2×10(6) D54 glioma cells were grown in a T25 cm flask with full DMEM media overnight. The next day the media was removed and the cells were washed with ice cold PBS. To the attached cells ice cold octyl-lysis buffer (Pierce detergent cell lysis kit) was added and the cells were scrapped off and incubated in a tube with gentle agitation at 4 C for 60 minute. The microcentrifuge tube was centrifuged at 12,000×g for 20 minutes. The supernatant was gently removed and placed on ice. […]

[14] = listed as Kr1(1-91 Active Zone)frag SEQ ID NO: 19

T1 sequence (P11021 19-654, species assumed): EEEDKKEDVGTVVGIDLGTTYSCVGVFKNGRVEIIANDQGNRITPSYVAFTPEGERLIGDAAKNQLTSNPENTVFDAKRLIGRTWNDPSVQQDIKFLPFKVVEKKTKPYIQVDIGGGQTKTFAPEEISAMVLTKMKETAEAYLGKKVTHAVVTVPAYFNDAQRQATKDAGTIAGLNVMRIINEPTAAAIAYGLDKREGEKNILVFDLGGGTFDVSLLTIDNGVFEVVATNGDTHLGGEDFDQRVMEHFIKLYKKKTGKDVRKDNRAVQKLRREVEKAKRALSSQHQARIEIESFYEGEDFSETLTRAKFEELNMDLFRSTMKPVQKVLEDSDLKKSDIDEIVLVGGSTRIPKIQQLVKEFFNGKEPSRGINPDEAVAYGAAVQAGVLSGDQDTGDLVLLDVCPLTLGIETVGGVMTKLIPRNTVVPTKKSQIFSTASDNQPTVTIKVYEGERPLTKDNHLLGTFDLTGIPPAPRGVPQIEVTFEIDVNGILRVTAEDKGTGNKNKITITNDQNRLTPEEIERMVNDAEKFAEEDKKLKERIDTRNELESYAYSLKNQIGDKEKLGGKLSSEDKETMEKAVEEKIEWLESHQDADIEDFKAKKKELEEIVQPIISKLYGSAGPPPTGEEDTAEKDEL
T2 sequence (P11021 19-654): as the sequence (P11021 19-654, species assumed) above

IC50 [1]: 2440 nM | IC50 [2]: 7 nM | IC50 [3]: 7 nM
Molecule: COc1cccc2c1C(=O)c1c(O)c3c(c(O)c1C2=O)C[C@@](O)(C(=O)CO)C[C@@H]3O[C@H]1C[C@H](N)[C@H](O)[C@H](C)O1 [Doxorubicin]

binding range to GRP78 [7]: pM range
Molecule: Kr1(1-91 Active Zone)frag SEQ ID NO:19: ROR1 kringle domain (amino acids 308-400 ROR1), expressed in 293T cells
IL-10 expression of tolerogenic dendritic cells ([4]; 100 nM, FIG. 10): elimination of IL-10 expression | maturity marker CD86 on DCs exposed to GRP78/LPS [4]: completely reverses; also recorded: increases in the maturity marker CD86 | maturity marker CD86 on DCs exposed to GRP78/LPS [4, 14]: increases in the maturity marker CD86 | activity for reversing the tolerogenic phenotype of dendritic cells induced by GRP78 [4]: potent nM activity | activity for reversing the tolerogenic phenotype of dendritic cells induced by GRP78 [4, 14]: reverses | potency in blocking B7H3 on DCs exposed to GRP78, relative to K5 [4]: at least 65 times | potency in blocking B7H3 on DCs exposed to GRP78, relative to K5 [4, 14]: more potent | percentage of B7H4+ marker on GRP78 treated DCs ([4]; increasing concentrations, FIGS. 11, 12): decreasing percentages | inhibition of tumor cell proliferation [5]: potent dose response inhibition | potency of inhibition of tumor cell proliferation relative to K5 [5]: several fold more potent | % Proliferation Inhibition ([6]; 0.1 μg/ml): 0 ± 5% | % Proliferation Inhibition ([6]; 1 μg/ml): 0 ± 6% | % Proliferation Inhibition ([6]; 10 μg/ml): 0 ± 7% | % Proliferation Inhibition ([8]; Calu 6, 0.1 μg/ml): 14 ± 2% | % Proliferation Inhibition ([8]; Calu 6, 1 μg/ml): 31 ± 5% | % Proliferation Inhibition ([8]; Calu 6, 10 μg/ml): 60 ± 5% | % Proliferation Inhibition ([9]; D54, 0.1 μg/ml): 15 ± 3% | % Proliferation Inhibition ([9]; D54, 1 μg/ml): 52 ± 6% | % Proliferation Inhibition ([9]; D54, 10 μg/ml): 85 ± 3% | % Proliferation Inhibition ([10]; MDA231, 0.1 μg/ml): 33 ± 8% | % Proliferation Inhibition ([10]; MDA231, 1 μg/ml): 63 ± 12% | % Proliferation Inhibition ([10]; MDA231, 10 μg/ml): 86 ± 10% | % Proliferation Inhibition ([11]; HT29, 0.1 μg/ml): 0 ± 8% | % Proliferation Inhibition ([11]; HT29, 1 μg/ml): 10 ± 9% | % Proliferation Inhibition ([11]; HT29, 10 μg/ml): 0 ± 5% | % Proliferation Inhibition ([12]; U87, 0.1 μg/ml): 12 ± 7% | % Proliferation Inhibition ([12]; U87, 1 μg/ml): 45 ± 7% | % Proliferation Inhibition ([12]; U87, 10 μg/ml): 82 ± 8%

blocking of immunoprecipitation of ROR1 using GRP78 [13]: not
B1: unfolded K5: unfolded K5(3-89 Active Zone)frag SEQ ID NO:1 kringle, control (protein)
chain: SEEDCMFGNGKGYRGKRATTVTGTPCQDWAAQEPHRHSIFTPETNPRAGLEKNYCRNPDGDVGGPWCYTTNPRKLYDYCDVPQCAAPKS
modifications: unfolded; Synthetic Peptide K5(3-89 Active Zone)
